Results from US20120027842A1, “TOPICAL FORMULATIONS OF FLAP INHIBITORS FOR ADMINISTRATION TO AN EYE” (Amira Pharmaceuticals, Inc., priority 2008, published 2012).

Columns and labels:
[1] = Solubility in 10% beta-hydroxypropyl cyclodextrin (BHPC) in water; format: physicochemical; conditions: Na salt; at 1 mg/mL
Procedure: In one aspect, aqueous ophthalmic solutions that include a FLAP inhibitor compounds were prepared by dissolving a FLAP inhibitor compound in 10% beta-hydroxypropyl cyclodextrin (BHPC) in water. Using this formulation, the following compounds were soluble at 1 mg/mL: Compound A (Na salt), Compound B (Na salt), Compound C (Na salt), Compound I (Na salt), Compound J (Na salt), Compound G (Na salt).

[2] = system: RSV (Long strain, serotype A); experiment: Mouse model of RSV-infected eye: ocular pathology; format: in vivo, BALB/c mice
Procedure: (§1) A mouse model of respiratory syncytial virus (RSV) eye infection is used to test the effects of ocular application of a FLAP inhibitor compound on RSV-induced ocular immunopathology (Bitko V, et al., J. Virol. 2007; 81(2):783-90; Bitko V, et al., Nat. Med. 2005; 11(1):50-5). Each mouse eye is topically treated with 60 ng of FLAP inhibitor compound or vehicle (sterile saline) in a volume of 2 μl. The FLAP inhibitor compound is instilled 40 min after virus inoculum and then once daily over the entire duration of the protocol (14 days).
Instillation of virus and inhibitor in the eye. Female BALB/c mice, 6 to 8 weeks old, were purchased from Charles River Laboratories. RSV (Long strain, serotype A) was grown on HEp-2 cells and purified on sucrose layers to a concentration of 10^11 PFU (Bitko et al., Nat. Med. 11:50-55, 2005). […]
Ocular pathology. Ocular disease was evaluated with a slit lamp biomicroscope as described previously (Bitko V, et al., J. Virol. 2007; 81(2):783-90) 15; Girgis et al., Invest. […] Pathology was scored on a scale of 0 to 5 as follows: 0=clear eye; 1=slight redness in the corners; 2=moderate redness and injection; 3=conjunctival and corneal injection with ciliary flush; 4=extensive injection, generally associated with some mucus; 5=most extensive injection, associated with mucus. Eyes were examined in a coded fashion with the reader unaware of the treatment given. […]

[3] = system: CysLTs; experiment: Mouse model of RSV-infected eye: CysLT measurements in eye homogenates (EIA); format: in vivo, BALB/c mice; conditions: topical treatment of RSV-infected mouse eyes, 60 ng/2 μL daily
Procedure: as §1
(§2) Instillation of virus and inhibitor in the eye. Female BALB/c mice, 6 to 8 weeks old, were purchased from Charles River Laboratories. RSV (Long strain, serotype A) was grown on HEp-2 cells and purified on sucrose layers to a concentration of 10^11 PFU (Bitko et al., Nat. Med. 11:50-55, 2005). Dilutions were done in phosphate-buffered saline (PBS) immediately before use to a final concentration of 10^4 PFU/2 μL as needed. A similarly diluted sucrose solution was used in sham-infected control mice. Mice were anesthetized by intraperitoneal injection of pentobarbital (50 mg/kg), and virus in 2 μL PBS was dropped into the corneal surface and massaged in with closed eyelids. The day of the inoculation was considered day 0. […]

[4] = system: IL-4; experiment: Mouse model of RSV-infected eye: Interleukin-4 (IL-4) measurements in eye homogenates; format: in vivo, BALB/c mice; conditions: topical treatment of RSV-infected mouse eyes, 60 ng/2 μL daily
Procedure: as §1, §2

[5] = system: RSV; experiment: Mouse model of RSV-infected eye: RSV viral load, RNA and protein in eye and lung; format: in vivo, BALB/c mice; conditions: ocular application to RSV-infected mice
Procedure: as §1
Instillation of virus and inhibitor in the eye. Female BALB/c mice, 6 to 8 weeks old, were purchased from Charles River Laboratories. RSV (Long strain, serotype A) was grown on HEp-2 cells and purified on sucrose layers to a concentration of 10^11 PFU (Bitko et al., Nat. Med. 11:50-55, 2005). Dilutions were done in phosphate-buffered saline (PBS) immediately before use to a final concentration of 10^4 PFU/2 μL as needed. A similarly diluted sucrose solution was used in sham-infected control mice. Mice were anesthetized by intraperitoneal injection of pentobarbital (50 mg/kg), and virus in 2 μL PBS was dropped into the corneal surface and massaged in with closed eyelids. The day of the inoculation was considered day 0. The FLAP inhibitor Compound C was diluted in PBS to 60 ng/2 μL just prior to application of 2 μL 40 minutes after the RSV inoculation on day 0 and then each day.
RSV RNA and protein: RSV is assayed in the ocular tissue on various days using both Western blot and viable virus assay (plaque forming unit; pfu) as described before. […] is quantified by RT-PCR. RSV RNA and protein were measured in the eye and lung (Urnowey et al., BMC Microbiol. 6:26, 2006).
Compound C reduced RSV in the lung.
Infection of an eye eventually transmits into the lung, causing a standard respiratory infection. […] Thus, it is of interest to monitor the lung infection to determine if the ocular application of the FLAP inhibitor compound has any effect on virus replication and quantity of virus in the lung. […]

[6] = design: species or system BALB/c mice; conditions: mouse, in vivo, 10 mg/kg

## COc1cnc(-c2ccc(Cn3c(CC(C)(C)C(=O)O)c(SC(C)(C)C)c4cc(OCc5ccc(C)cn5)ccc43)cc2)nc1 [Compound A, 3-[3-tert-Butylsulfanyl-1-[4-(5-methoxy-pyrimidin-2-yl)-benzyl]-5-(5-methyl-pyridin-2-ylmethoxy)-1H-indol-2-yl]-2,2-dimethyl-propionic acid]
[1]
  solubility in 10% beta-hydroxypropyl cyclodextrin (BHPC) in water: soluble

## COc1cnc(-c2ccc(Cn3c(CC(C)(C)C(=O)O)c(SC(C)(C)C)c4cc(OCc5cnc(C)cn5)ccc43)cc2)nc1 [Compound B, 3-[3-tert-Butylsulfanyl-1-[4-(5-methoxy-pyrimidin-2-yl)-benzyl]-5-(5-methyl-pyrazin-2-ylmethoxy)-1H-indol-2-yl]-2,2-dimethyl-propionic acid]
[1]
  solubility in 10% beta-hydroxypropyl cyclodextrin (BHPC) in water: soluble

## COc1cnc(-c2ccc(Cn3c(CC(C)(C)C(=O)O)c(SC(C)(C)C)c4cc(OC[C@@H]5Cc6ccccc6N5C(C)=O)ccc43)cc2)nc1 [Compound C, 3-{5-((S)-1-Acetyl-2,3-dihydro-1H-indol-2-ylmethoxy)-3-tert-butylsulfanyl-1-[4-(5-methoxy-pyrimidin-2-yl)-benzyl]-1H-indol-2-yl}-2,2-dimethyl-propionic acid]
[1]
  solubility in 10% beta-hydroxypropyl cyclodextrin (BHPC) in water: soluble
[2]; ocular application 60 ng/2 μL per eye daily, day 8
  gummy residue and mucin build up in infected eyes: clear of gummy residue and mucin build up
[2]; ocular application 60 ng/2 μL per eye, 40 min after RSV then daily, days 2-14 after RSV challenge
  RSV eye pathology score (scale of 0 to 5): reduces the pathology score across all observation days
[3]
  levels of CysLTs in eye homogenates: reduced
[4]
  levels of IL-4 in eye homogenates: reduced
[5]
  RSV in the lung: reduced
  RSV mRNA or protein in the eye or the lung: did not increase
  viral load in the eye or the lung: did not increase

## CC(C)(C)Sc1c(CC(C)(C)C(=O)O)n(Cc2ccc(-c3ccc(F)cn3)cc2)c2ccc(OCc3ccc4ccccc4n3)cc12 [Compound F, 3-[3-tert-Butylsulfanyl-1-[4-(5-fluoro-pyridin-2-yl)-benzyl]-5-(quinolin-2-ylmethoxy)-1H-indol-2-yl]-2,2-dimethyl-propionic acid]
[1]
  solubility in 10% beta-hydroxypropyl cyclodextrin (BHPC) in water: formed a cloudy solution

## CCC(CC)(Cc1c(SC(C)(C)C)c2cc(OCc3ccc(C)cn3)ccc2n1Cc1ccc(-c2ncc(OC)cn2)cc1)C(=O)O [Compound G, 2-[3-tert-Butylsulfanyl-1-[4-(5-methoxy-pyrimidin-2-yl)-benzyl]-5-(5-methyl-pyridin-2-ylmethoxy)-1H-indol-2-ylmethyl]-2-ethyl-butyric acid]
[1]
  solubility in 10% beta-hydroxypropyl cyclodextrin (BHPC) in water: soluble

## CC(=O)N1CCC[C@H]1COc1ccc2c(c1)c(SC(C)(C)C)c(CC(C)(C)C(=O)O)n2Cc1ccc(Cl)cc1 [Compound I, 3-[5-((S)-1-Acetyl-pyrrolidin-2-ylmethoxy)-3-tert-butylsulfanyl-1-(4-chloro-benzyl)-1H-indol-2-yl]-2,2-dimethyl-propionic acid]
[1]
  solubility in 10% beta-hydroxypropyl cyclodextrin (BHPC) in water: soluble

## CC(C)(C)Sc1c(CC(C)(C)C(=O)O)n(Cc2ccc(-c3ccc(F)cn3)cc2)c2ccc(OCc3ccccn3)cc12 [Compound J, 3-[3-tert-butylsulfanyl-1-[4-(5-fluoro-pyridin-2-yl)-benzyl]-5-(pyridin-2-ylmethoxy)-1H-indol-2-yl]-2,2-dimethyl-propionic acid]
[1]
  solubility in 10% beta-hydroxypropyl cyclodextrin (BHPC) in water: soluble

## CCN(Cc1cc(C(F)(F)F)ccc1-c1cncc(CC(=O)O)c1)C(=O)OCc1ccccc1 [DP2 receptor antagonist]
[6]
  Plasma concentration @ trough: <10 nM
